Read-outs that look alike come from different tables or passages of the source.
What was measured:
PPARγ-RXRα heterodimer = biological target: T1, PPARγ-RXRα heterodimer (Homo sapiens, UniProt P37231); assay: PPARγ-RXRα heterodimer ligand activity (luciferase reporter, PPARγ:RXRα:4ERPP/CHO-K1 cells); format: cell-based; conditions: concentration showing 50% of the maximum luciferase induction rate; CHO-K1 reporter cells, one day incubation
T1 construct: expressed in transfected cells; host or cells: CHO-K1 (PPARγ:RXRα:4ERPP/CHO-K1)
T1 sequence (P37231 1-477 isoform P37231-2): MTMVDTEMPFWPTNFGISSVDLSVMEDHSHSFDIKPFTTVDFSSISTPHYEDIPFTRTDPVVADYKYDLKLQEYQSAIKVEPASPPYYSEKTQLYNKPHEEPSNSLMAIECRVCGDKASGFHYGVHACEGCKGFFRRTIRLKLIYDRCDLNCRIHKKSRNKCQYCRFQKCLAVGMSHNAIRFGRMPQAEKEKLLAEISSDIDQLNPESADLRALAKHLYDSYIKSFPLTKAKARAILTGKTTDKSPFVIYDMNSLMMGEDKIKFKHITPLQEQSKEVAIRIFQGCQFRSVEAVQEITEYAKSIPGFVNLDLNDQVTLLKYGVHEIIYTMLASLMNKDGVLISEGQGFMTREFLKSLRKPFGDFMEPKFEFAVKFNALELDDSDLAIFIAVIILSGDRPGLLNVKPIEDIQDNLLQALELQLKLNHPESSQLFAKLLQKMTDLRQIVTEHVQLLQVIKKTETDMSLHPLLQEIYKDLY
T1 sequence (P19793 1-462 partner): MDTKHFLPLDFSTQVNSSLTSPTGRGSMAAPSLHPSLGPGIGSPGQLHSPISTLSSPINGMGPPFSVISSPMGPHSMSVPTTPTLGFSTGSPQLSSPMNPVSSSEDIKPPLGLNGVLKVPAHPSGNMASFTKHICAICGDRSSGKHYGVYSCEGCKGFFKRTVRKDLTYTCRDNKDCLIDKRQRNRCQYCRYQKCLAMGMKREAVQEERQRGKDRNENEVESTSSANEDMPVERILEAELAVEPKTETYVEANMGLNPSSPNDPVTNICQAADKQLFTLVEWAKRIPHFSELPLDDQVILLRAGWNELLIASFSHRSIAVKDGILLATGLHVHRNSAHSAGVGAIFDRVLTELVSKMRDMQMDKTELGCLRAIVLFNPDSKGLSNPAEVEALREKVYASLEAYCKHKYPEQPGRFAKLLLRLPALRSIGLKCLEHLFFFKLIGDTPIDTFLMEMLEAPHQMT
Protocol: The PPARγ:RXRα:4ERPP/CHO-K1 cells described in WO03/099793 were cultured in a Ham F12 medium [manufactured by Life Technologies, Inc., US] containing 10% calf fetal serum [manufactured by Life Technologies, Inc., US], sown in a 96-well white plate (manufactured by Corning Coster Corporation, US] at 1×10^4 cells/well, and incubated overnight in a carbon dioxide gas incubator at 37° C.
Then, the medium was removed from the 96 well white plate, 45 μl of Ham F12-medium containing 0.1% fatty acid-free bovine serum albumin (BSA) and a test compound (5 μl) were added, and the cells were incubated for one day in a carbon dioxide gas incubator at 37° C. The medium was removed, 20 μl of PicaGene 7.5 (manufactured by Wako Pure Chemical Industries, Ltd.) 2-fold diluted with HBSS (HANKS' BALANCED SALT SOLUTION) [manufactured by BIO WHITTAKER, US] was added. After stirring, the luciferase activity was determined using the 1420 ARVO Multilabel Counter [manufactured by PerkinElmer, US].
The induction rate was calculated from the luciferase activity of each test compound based on the luciferase activity of the test compound non-administration group as 1. The test compound concentration and the induction rate were analyzed by PRISM [manufactured by GraphPad Software, Inc., US] to calculate EC50 value (compound concentration showing 50% of the maximum value of induction rate) of the test compound.

KKAy mice = assay: Blood glucose and blood lipid (triglyceride) lowering action in mice; format: in vivo; conditions: Mus musculus, 4TO7, po, 4 to 7 days; for response vs control in vivo at 0.01 %: 0.01% in powder diet; for response vs control in vivo at 0.03 %: 0.03% in powder diet; for response vs control in vivo at 0.005 %: 0.005% in powder diet
Source text: The test compound was mixed with a powder diet (CE-2, CLEA JAPAN, INC.) at a proportion of 0.01% (0.03% for the compounds of Examples 1, 2, 12, 81, 94, 96, 129 and 143, and 0.005% for the compounds of Examples 28, 30 and 37) and freely given to KKAy mice (9 to 14-week-old, 5 mice per group) which are obesity non-insulin-dependent diabetes (type-2 diabetes) models, for 4 to 7 days. During this period, water was freely given. The blood was drawn from the orbital venous plexus. Glucose and triglyceride in the plasma separated from the blood were quantitated using L Type Wako Glu2 (Wako Pure Chemical Industries, Ltd.) and L Type Wako TG·H (Wako Pure Chemical Industries, Ltd.), respectively, according to an enzyme method.

[1] = plasma glucose relative to non-administration group = 100%, read-out: hypoglycemic action (%)
[2] = plasma triglyceride relative to non-administration group = 100%, read-out: hypolipidemic action (%)

SMILES	EC50 (PPARγ-RXRα heterodimer)	response vs control in vivo at 0.01 % (KKAy mice; [1])	response vs control in vivo at 0.01 % (KKAy mice; [2])	response vs control in vivo at 0.03 % (KKAy mice; [1])	response vs control in vivo at 0.03 % (KKAy mice; [2])	response vs control in vivo at 0.005 % (KKAy mice; [1])	response vs control in vivo at 0.005 % (KKAy mice; [2])
CCCCCS(=O)(=O)NC(=O)/C=C/c1cc(C2CC2)nn1Cc1ccc(C(F)(F)F)cc1Cl [Example 155, (2E)-3-{1-[2-chloro-4-(trifluoromethyl)benzyl]-3-cyclopropyl-1H-pyrazol-5-yl}-N-(pentylsulfonyl)acrylamide]	12 nM	70%	70%	–	–	–	–
CC(C)Oc1ccc(CCCOC(=O)NS(=O)(=O)NCCc2ccccn2)c(Oc2ncc(C(F)(F)F)cc2Cl)c1 [Example 444, 3-(2-{[3-chloro-5-(trifluoromethyl)pyridin-2-yl]oxy}-47 isopropoxyphenyl)propyl {[(2-pyridin-2-ylethyl)amino]sulfonyl}carbamate]	3.4 nM	55%	52%	–	–	–	–
COCCOc1ccc(/C=C/COC(=O)NS(=O)(=O)c2ccc(Cl)cc2)c(Oc2ncc(C(F)(F)F)cc2Cl)c1 [Example 37, (2E)-3-[2-{[3-chloro-5-(trifluoromethyl)pyridin-2-yl]oxy}-4-(2-methoxyethoxy)phenyl]-2-propen-1-yl [(4-chlorophenyl)sulfonyl]carbamate dihydrate]	21 nM	–	–	–	–	68%	70%
COCCOc1ccc(CCCOC(=O)NS(=O)(=O)c2ccc(C)cc2)c(Oc2ncc(C(F)(F)F)cc2Cl)c1 [Example 30, 3-[2-{[3-chloro-5-(trifluoromethyl)pyridin-2-yl]oxy}-4-(2-methoxyethoxy)phenyl]propyl [(4-methylphenyl)sulfonyl]carbamate monohydrate]	3.8 nM	–	–	–	–	47%	57%
CCCCCS(=O)(=O)NC(=O)/C=C/c1ccc(OCC(C)(C)O)cc1Oc1ncc(C(F)(F)F)cc1Cl [Example 250, (2E)-3-[2-{[3-chloro-5-(trifluoromethyl)pyridin-2-yl]oxy}-4-(2-hydroxy-2-methylpropoxy)phenyl]-N-(pentylsulfonyl)acrylamide]	7.2 nM	78%	121%	–	–	–	–
CCCCCS(=O)(=O)NC(=O)CCc1cc(OC(C)C)nn1Cc1ccc(Cl)cc1Cl [Example 81, 3-[1-(2,4-dichlorobenzyl)-3-isopropoxy-1H-pyrazol-5-yl]-N-(pentylsulfonyl)propanamide]	16 nM	–	–	44%	60%	–	–
CCCCCS(=O)(=O)NC(=O)CCc1cc(C(C)C)nn1Cc1ccc(C(F)(F)F)cc1Cl [Example 96, 3-(1-[2-chloro-4-(trifluoromethyl)benzyl]-3-isopropyl-1H-pyrazol-5-yl)-N-(pentylsulfonyl)propanamide]	8.4 nM	–	–	53%	57%	–	–
CC(C)OCCNS(=O)(=O)NC(=O)OCCCc1ccc(OCCO)cc1Oc1ncc(C(F)(F)F)cc1Cl [Example 439, 3-[2-{[3-chloro-5-(trifluoromethyl)pyridin-2-yl]oxy}-4-(2-hydroxyethoxy)phenyl]propyl {[(2-isopropoxyethyl)amino]sulfonyl}carbamate]	1.8 nM	49%	34%	–	–	–	–
CCCCCS(=O)(=O)NC(=O)/C=C/c1ccc(OCCO)cc1Oc1ncc(C(F)(F)F)cc1Cl [Example 218, (2E)-3-[2-{[3-chloro-5-(trifluoromethyl)pyridin-2-yl]oxy}-4-(2-hydroxyethoxy)phenyl]-N-(pentylsulfonyl)acrylamide monohydrate]	80 nM	81%	129%	–	–	–	–

The next lines start with results.

EC50 (PPARγ-RXRα heterodimer)	SMILES	response vs control in vivo at 0.01 % (KKAy mice; [1])	response vs control in vivo at 0.01 % (KKAy mice; [2])	response vs control in vivo at 0.03 % (KKAy mice; [1])	response vs control in vivo at 0.03 % (KKAy mice; [2])	response vs control in vivo at 0.005 % (KKAy mice; [1])	response vs control in vivo at 0.005 % (KKAy mice; [2])
2.6 nM	CCCCCS(=O)(=O)NC(=O)CCc1ccc(OC(C)C)cc1Oc1ncc(C(F)(F)F)cc1Cl [Example 2, 3-(2-{[3-chloro-5-(trifluoromethyl)pyridin-2-yl]oxy}-4-isopropoxyphenyl)-N-(pentylsulfonyl)propanamide]	–	–	50%	41%	–	–
1.5 nM	CCCCCS(=O)(=O)NC(=O)CCc1ccc(OCCOC)cc1Oc1ncc(C(F)(F)F)cc1Cl [Example 1, 3-[2-{[3-chloro-5-(trifluoromethyl)pyridin-2-yl]oxy}-4-(2-methoxyethoxy)phenyl]-N-(pentylsulfonyl)propanamide]	–	–	47%	53%	–	–
5.2 nM	CCCCCS(=O)(=O)NC(=O)/C(C)=C/c1ccc(OCCOC)cc1Oc1ncc(C(F)(F)F)cc1Cl [Example 211, (2E)-3-[2-{[3-chloro-5-(trifluoromethyl)pyridin-2-yl]oxy}-4-(2-methoxyethoxy)phenyl]-2-methyl-N-(pentylsulfonyl)acrylamide]	49%	46%	–	–	–	–
6.7 nM	CCCCCS(=O)(=O)NC(=O)C(Cc1ccc(OCCOC)cc1Oc1ncc(C(F)(F)F)cc1Cl)OC (stereo not drawn) [Example 210, 3-[2-{[3-chloro-5-(trifluoromethyl)pyridin-2-yl]oxy}-4-(2-methoxyethoxy)phenyl]-2-methoxy-N-(pentylsulfonyl)propanamide]	58%	69%	–	–	–	–
1.1 nM	CCCCCNS(=O)(=O)NC(=O)CCc1ccc(OCCOC)cc1Oc1ncc(C(F)(F)F)cc1Cl [Example 214, 3-[2-{[3-chloro-5-(trifluoromethyl)pyridin-2-yl]oxy}-4-(2-methoxyethoxy)phenyl]-N-[(pentylamino)sulfonyl]propanamide]	56%	65%	–	–	–	–
4.5 nM	CCCCCS(=O)(=O)NC(=O)OCCCc1ccc(OCCOC)cc1Oc1ncc(C(F)(F)F)cc1Cl [Example 28, 3-[2-{[3-chloro-5-(trifluoromethyl)pyridin-2-yl]oxy}-4-(2-methoxyethoxy)phenyl]propyl (pentylsulfonyl)carbamate]	–	–	–	–	52%	32%
0.92 nM	COCCOc1ccc(CCCOC(=O)NS(=O)(=O)NCCOC(C)C)c(Oc2ncc(C(F)(F)F)cc2Cl)c1 [Example 204, 3-[2-{[3-chloro-5-(trifluoromethyl)pyridin-2-yl]oxy}-4-(2-methoxyethoxy)phenyl]propyl {[(2-isopropoxyethyl)amino]sulfonyl}carbamate]	52%	36%	–	–	–	–

Source: patent publication US20100041892A1, “Therapeutic agent for diabetes” (priority 2005, published 2010)
